Experiments:
Assay in all cases: Premier Screen kinase panel (MRC PPU)
Type in all cases: biochemical
CDK9-Cyclin T1 = CDK9-Cyclin T1 (Homo sapiens, UniProt P50750); settings: CDK9-Cyclin T1 (Entrez CDK9 + CCNT1), read-out: Residual activity (%)
Procedure: (§1) room temperature with shaking for 30 minutes. The kinase concentration in the eluates was measured by qPCR.
(§2) using ADP-GloTM assay at the MRC PPU International Centre for Kinase Profiling, University of Dundee.
(§3) Conducted by MRC PPU International Centre
(§4) Conducted by MRC PPU International Centre for […]

DYRK2 = DYRK2 (Homo sapiens, UniProt Q92630); settings: DYRK2 (Entrez DYRK2), read-out: Residual activity (%)
DYRK2, sequence (Q92630 whole entry): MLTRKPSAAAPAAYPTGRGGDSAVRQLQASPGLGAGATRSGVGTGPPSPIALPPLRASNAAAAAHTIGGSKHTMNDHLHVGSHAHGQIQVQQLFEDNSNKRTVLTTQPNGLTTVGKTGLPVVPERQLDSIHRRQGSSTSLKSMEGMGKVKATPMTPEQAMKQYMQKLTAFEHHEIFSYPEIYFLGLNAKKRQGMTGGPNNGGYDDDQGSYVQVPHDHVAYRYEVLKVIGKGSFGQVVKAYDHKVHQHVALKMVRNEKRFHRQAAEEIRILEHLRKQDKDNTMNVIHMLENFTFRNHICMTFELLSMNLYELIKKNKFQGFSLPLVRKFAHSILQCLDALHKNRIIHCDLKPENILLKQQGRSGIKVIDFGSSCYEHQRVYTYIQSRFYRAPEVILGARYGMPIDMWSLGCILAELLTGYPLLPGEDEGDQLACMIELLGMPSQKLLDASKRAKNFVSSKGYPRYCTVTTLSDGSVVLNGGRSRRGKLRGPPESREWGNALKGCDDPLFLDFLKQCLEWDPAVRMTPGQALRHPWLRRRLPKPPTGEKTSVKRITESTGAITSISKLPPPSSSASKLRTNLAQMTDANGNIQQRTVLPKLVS
Procedure: as §1, §2, §3, §4

SYK = SYK (Homo sapiens, UniProt P43405); settings: SYK (Entrez SYK), read-out: Residual activity (%)
Procedure: as §1, §2, §3, §4

TBK1 = TBK1 (Homo sapiens, UniProt Q9UHD2); settings: TBK1 (Entrez TBK1), read-out: Residual activity (%)
Procedure: as §1, §2, §3, §4

NEK2a = NEK2a (Homo sapiens, UniProt P51955); settings: NEK2a (Entrez NEK2), read-out: Residual activity (%)
NEK2a, sequence (P51955 whole entry): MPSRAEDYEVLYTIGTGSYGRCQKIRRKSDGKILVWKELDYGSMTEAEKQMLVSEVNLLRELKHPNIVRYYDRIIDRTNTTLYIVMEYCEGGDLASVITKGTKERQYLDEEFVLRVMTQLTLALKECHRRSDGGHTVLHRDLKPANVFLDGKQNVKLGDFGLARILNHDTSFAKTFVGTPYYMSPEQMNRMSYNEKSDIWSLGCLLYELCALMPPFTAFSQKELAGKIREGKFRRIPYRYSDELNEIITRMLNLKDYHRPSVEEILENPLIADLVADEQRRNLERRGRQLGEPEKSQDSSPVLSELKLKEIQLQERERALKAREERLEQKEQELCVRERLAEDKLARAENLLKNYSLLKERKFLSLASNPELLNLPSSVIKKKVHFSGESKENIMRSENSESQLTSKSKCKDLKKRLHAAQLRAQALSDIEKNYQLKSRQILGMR
Procedure: as §1, §2, §3, §4

CAMKKb = CAMKKb (Homo sapiens, UniProt Q96RR4); settings: CAMKKb (Entrez CAMKK2), read-out: Residual activity (%)
Procedure: as §1, §2, §3, §4

TTBK1 = TTBK1 (Homo sapiens, UniProt Q5TCY1); settings: TTBK1 (Entrez TTBK1), read-out: Residual activity (%)
Procedure: as §1, §2, §3, §4

PIM1 = PIM1 (Homo sapiens, UniProt P11309); settings: PIM1 (Entrez PIM1), read-out: Residual activity (%)
Procedure: as §1, §2, §3, §4

RSK1 = RSK1 (Homo sapiens, UniProt Q15418); settings: RSK1 (Entrez RPS6KA1), read-out: Residual activity (%)
Procedure: as §1, §2, §3, §4

TTBK2 = TTBK2 (Homo sapiens, UniProt Q6IQ55); settings: TTBK2 (Entrez TTBK2), read-out: Residual activity (%)
Procedure: as §1, §2, §3, §4

MSK1 = MSK1 (Homo sapiens, UniProt O75582); settings: MSK1 (Entrez RPS6KA5), read-out: Residual activity (%)
Procedure: as §1, §2, §3, §4

PDK1 = PDK1 (Homo sapiens, UniProt O15530); settings: PDK1 (Entrez PDPK1), read-out: Residual activity (%)
Procedure: as §1, §2, §3, §4

MNK1 = MNK1 (Homo sapiens, UniProt Q9BUB5); settings: MNK1 (Entrez MKNK1), read-out: Residual activity (%)
MNK1, sequence (Q9BUB5 whole entry): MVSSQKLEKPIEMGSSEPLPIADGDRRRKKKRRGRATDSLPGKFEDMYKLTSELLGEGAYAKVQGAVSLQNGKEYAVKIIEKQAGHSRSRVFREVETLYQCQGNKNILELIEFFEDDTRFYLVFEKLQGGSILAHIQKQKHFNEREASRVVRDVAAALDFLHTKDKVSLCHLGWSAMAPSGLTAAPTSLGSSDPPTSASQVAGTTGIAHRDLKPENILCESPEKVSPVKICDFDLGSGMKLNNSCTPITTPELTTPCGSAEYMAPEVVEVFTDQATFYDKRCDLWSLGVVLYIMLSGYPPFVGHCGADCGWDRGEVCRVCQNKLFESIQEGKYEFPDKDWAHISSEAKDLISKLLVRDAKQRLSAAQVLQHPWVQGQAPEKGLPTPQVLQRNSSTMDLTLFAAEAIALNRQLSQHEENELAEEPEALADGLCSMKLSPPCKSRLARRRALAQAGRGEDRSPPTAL
Procedure: as §1, §2, §3, §4

EPH-A2 = EPH-A2 (Homo sapiens, UniProt P29317); settings: EPH-A2 (Entrez EPHA2), read-out: Residual activity (%)
Procedure: as §1, §2, §3, §4

IRAK4 = IRAK4 (Homo sapiens, UniProt Q9NWZ3); settings: IRAK4 (Entrez IRAK4), read-out: Residual activity (%)
Procedure: as §1, §2, §3, §4

PKD1 = PKD1 (Homo sapiens, UniProt Q15139); settings: PKD1 (Entrez PKD1), read-out: Residual activity (%)
Procedure: as §1, §2, §3, §4

IR = IR (Homo sapiens, UniProt P06213); settings: IR (Entrez INSR), read-out: Residual activity (%)
Procedure: as §1, §2, §3, §4

MST2 = MST2 (Homo sapiens, UniProt Q13188); settings: MST2 (Entrez STK3), read-out: Residual activity (%)
Procedure: as §1, §2, §3, §4

p38d MAPK = p38d MAPK (Homo sapiens, UniProt O15264); settings: p38d MAPK (Entrez MAPK12), read-out: Residual activity (%)
Procedure: as §1, §2, §3, §4

WNK1 = WNK1 (Homo sapiens, UniProt Q9H4A3); settings: WNK1 (Entrez WNK1), read-out: Residual activity (%)
Procedure: as §1, §2, §3, §4

MKK2 = MKK2 (Homo sapiens, UniProt P36507); settings: MKK2 (Entrez MAP2K2), read-out: Residual activity (%)
Procedure: as §1, §2, §3, §4

TAO1 = TAO1 (Homo sapiens, UniProt Q7L7X3); settings: TAO1 (Entrez TAOK1), read-out: Residual activity (%)
TAO1, sequence (Q7L7X3 whole entry): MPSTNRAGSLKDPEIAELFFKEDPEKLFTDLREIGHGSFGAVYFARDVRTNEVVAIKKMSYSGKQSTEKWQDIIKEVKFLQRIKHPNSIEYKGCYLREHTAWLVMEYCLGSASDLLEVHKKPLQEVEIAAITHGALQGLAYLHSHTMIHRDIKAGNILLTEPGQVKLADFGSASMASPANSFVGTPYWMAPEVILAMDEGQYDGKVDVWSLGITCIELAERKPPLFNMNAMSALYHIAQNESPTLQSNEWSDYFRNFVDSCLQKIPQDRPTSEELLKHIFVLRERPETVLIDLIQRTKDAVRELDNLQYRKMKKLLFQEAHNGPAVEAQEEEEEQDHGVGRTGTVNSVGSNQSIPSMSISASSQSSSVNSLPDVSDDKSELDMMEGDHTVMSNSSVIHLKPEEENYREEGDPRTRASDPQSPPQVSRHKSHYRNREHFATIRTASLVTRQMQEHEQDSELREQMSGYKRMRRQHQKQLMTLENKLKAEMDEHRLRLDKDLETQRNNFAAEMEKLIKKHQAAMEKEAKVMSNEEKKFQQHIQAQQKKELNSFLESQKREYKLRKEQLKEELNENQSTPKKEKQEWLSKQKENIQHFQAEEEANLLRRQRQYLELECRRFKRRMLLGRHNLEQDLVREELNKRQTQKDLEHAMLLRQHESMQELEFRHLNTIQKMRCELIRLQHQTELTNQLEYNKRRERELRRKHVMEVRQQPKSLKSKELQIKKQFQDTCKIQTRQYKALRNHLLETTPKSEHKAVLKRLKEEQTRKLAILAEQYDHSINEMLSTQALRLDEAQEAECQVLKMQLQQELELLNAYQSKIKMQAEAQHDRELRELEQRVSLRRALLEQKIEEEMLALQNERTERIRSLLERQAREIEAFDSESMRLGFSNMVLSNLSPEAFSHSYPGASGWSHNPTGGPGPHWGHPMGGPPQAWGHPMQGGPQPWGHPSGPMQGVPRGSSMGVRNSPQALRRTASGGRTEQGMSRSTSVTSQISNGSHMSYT
Procedure: as §1, §2, §3, §4

ERK1 = ERK1 (Homo sapiens, UniProt P27361); settings: ERK1 (Entrez MAPK3), read-out: Residual activity (%)
Procedure: as §1, §2, §3, §4

EF2K = EF2K (Homo sapiens, UniProt O00418); settings: EF2K (Entrez EEF2K), read-out: Residual activity (%)
Procedure: as §1, §2, §3, §4

IGF-1R = IGF-1R (Homo sapiens, UniProt P08069); settings: IGF-1R (Entrez IGF1R), read-out: Residual activity (%)
Procedure: as §1, §2, §3, §4

MARK4 = MARK4 (Homo sapiens, UniProt Q96L34); settings: MARK4 (Entrez MARK4), read-out: Residual activity (%)
Procedure: as §1, §2, §3, §4

GCK = GCK (Homo sapiens, UniProt Q12851); settings: read-out: Residual activity (%)
Procedure: as §1, §2, §3, §4

p38g MAPK = p38g MAPK (Homo sapiens, UniProt P53778); settings: p38g MAPK (Entrez MAPK13), read-out: Residual activity (%)
Procedure: as §1, §2, §3, §4

JNK2 = JNK2 (Homo sapiens, UniProt P45984); settings: JNK2 (Entrez MAPK9), read-out: Residual activity (%)
Procedure: as §1, §2, §3, §4

MAP4K5 = MAP4K5 (Homo sapiens, UniProt Q9Y4K4); settings: MAP4K5 (Entrez MAP4K5), read-out: Residual activity (%)
MAP4K5, sequence (Q9Y4K4 whole entry): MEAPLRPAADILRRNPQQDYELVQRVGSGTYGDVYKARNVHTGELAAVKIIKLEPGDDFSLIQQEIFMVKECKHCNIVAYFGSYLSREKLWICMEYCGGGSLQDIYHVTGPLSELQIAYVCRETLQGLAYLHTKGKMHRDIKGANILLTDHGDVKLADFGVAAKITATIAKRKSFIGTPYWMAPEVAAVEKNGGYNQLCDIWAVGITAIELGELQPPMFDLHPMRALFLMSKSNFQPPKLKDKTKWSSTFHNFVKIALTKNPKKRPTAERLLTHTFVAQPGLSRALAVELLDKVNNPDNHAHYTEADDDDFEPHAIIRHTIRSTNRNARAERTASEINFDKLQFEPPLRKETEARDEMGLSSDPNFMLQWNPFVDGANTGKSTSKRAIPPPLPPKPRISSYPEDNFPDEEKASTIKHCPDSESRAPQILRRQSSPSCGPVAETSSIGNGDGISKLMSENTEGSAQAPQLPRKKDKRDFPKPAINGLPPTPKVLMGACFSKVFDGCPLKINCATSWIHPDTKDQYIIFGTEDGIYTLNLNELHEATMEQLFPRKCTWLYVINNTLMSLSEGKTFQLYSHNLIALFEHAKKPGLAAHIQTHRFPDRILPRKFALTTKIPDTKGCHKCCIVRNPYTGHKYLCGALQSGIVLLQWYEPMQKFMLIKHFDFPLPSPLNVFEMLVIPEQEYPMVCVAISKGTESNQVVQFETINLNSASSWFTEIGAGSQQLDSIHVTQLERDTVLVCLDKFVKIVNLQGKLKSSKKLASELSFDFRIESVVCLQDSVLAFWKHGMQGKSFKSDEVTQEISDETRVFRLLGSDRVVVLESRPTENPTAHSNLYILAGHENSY
Procedure: as §1, §2, §3, §4

PKCz = PKCz (Homo sapiens, UniProt Q05513); settings: PKCz (Entrez PRKCZ), read-out: Residual activity (%)
PKCz, sequence (Q05513 whole entry): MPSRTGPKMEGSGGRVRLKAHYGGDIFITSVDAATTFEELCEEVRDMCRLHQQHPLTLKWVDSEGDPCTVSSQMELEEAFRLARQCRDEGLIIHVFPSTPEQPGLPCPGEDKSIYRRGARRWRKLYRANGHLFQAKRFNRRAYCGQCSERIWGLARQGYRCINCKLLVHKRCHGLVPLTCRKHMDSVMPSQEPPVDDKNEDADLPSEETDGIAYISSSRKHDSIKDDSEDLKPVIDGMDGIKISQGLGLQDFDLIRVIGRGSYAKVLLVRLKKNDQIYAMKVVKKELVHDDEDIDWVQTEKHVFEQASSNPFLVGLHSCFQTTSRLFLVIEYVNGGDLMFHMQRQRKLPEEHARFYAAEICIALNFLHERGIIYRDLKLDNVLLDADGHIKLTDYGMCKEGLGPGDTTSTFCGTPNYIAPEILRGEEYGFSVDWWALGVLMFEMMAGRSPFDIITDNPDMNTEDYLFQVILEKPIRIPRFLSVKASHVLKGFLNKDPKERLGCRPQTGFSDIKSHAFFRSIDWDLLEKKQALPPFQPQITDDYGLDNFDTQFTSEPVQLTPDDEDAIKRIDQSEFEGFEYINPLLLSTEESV
Procedure: as §1, §2, §3, §4

CDK9-Cyclin T1, sequence (P50750 whole entry): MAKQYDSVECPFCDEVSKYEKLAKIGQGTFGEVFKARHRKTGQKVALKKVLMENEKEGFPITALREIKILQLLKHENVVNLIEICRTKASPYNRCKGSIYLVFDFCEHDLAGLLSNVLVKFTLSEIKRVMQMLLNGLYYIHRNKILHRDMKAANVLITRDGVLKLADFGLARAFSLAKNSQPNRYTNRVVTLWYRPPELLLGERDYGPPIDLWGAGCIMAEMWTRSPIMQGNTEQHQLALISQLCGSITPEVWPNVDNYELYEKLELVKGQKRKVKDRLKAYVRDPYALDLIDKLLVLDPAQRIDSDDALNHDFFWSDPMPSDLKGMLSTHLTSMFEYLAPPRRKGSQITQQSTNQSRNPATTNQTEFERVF
CDK9-Cyclin T1, sequence (O60563 whole entry partner): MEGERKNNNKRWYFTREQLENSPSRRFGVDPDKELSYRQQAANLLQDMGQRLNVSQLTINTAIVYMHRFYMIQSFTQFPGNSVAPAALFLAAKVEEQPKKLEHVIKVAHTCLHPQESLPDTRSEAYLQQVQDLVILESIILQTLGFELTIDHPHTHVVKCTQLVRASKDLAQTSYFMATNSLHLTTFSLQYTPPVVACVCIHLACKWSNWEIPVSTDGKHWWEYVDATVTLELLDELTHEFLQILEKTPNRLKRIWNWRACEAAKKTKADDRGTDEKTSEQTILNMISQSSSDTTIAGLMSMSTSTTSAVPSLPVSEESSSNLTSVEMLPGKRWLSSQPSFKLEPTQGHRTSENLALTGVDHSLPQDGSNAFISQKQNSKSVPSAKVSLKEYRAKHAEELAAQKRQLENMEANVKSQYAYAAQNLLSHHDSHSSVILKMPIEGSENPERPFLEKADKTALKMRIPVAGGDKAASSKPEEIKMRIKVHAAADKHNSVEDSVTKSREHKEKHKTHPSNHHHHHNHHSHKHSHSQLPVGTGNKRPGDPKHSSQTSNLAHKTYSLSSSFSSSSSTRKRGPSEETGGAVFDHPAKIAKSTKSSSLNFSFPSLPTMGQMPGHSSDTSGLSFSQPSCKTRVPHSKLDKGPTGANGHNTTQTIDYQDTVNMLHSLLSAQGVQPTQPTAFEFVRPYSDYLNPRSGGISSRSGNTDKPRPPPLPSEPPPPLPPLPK

## COc1ccc(Nc2ncnc3c2ccn3-c2ccc(C)c(C)c2)cc1Cl [compound 36]
CDK9-Cyclin T1
  remaining activity at 1 µM: 94%
DYRK2
  remaining activity at 1 µM: 108%
SYK
  remaining activity at 1 µM: 97%
TBK1
  remaining activity at 1 µM: 92%
NEK2a
  remaining activity at 1 µM: 86%
CAMKKb
  remaining activity at 1 µM: 96%
TTBK1
  remaining activity at 1 µM: 68%
PIM1
  remaining activity at 1 µM: 75%
RSK1
  remaining activity at 1 µM: 109%
TTBK2
  remaining activity at 1 µM: 70%
MSK1
  remaining activity at 1 µM: 103%
PDK1
  remaining activity at 1 µM: 133%
MNK1
  remaining activity at 1 µM: 87%
EPH-A2
  remaining activity at 1 µM: 83%
IRAK4
  remaining activity at 1 µM: 113%
PKD1
  remaining activity at 1 µM: 93%
IR
  remaining activity at 1 µM: 108%
MST2
  remaining activity at 1 µM: 86%
p38d MAPK
  remaining activity at 1 µM: 128%
WNK1
  remaining activity at 1 µM: 105%
MKK2
  remaining activity at 1 µM: 82%
TAO1
  remaining activity at 1 µM: 111%
ERK1
  remaining activity at 1 µM: 62%
EF2K
  remaining activity at 1 µM: 85%
IGF-1R
  remaining activity at 1 µM: 119%
MARK4
  remaining activity at 1 µM: 76%
GCK
  remaining activity at 1 µM: 105%
p38g MAPK
  remaining activity at 1 µM: 101%
JNK2
  remaining activity at 1 µM: 106%
MAP4K5
  remaining activity at 1 µM: 80%
PKCz
  remaining activity at 1 µM: 111%

Source: paper PMC10211317, “Identification of ARUK2002821 as an isoform-selective PI5P4Kα inhibitor” (RSC Medicinal Chemistry, 2023)
